Where two headings read alike, the source gives them in different places.
How the values were obtained:
Vapor pressure at 20° C. = format: physicochemical
Description: (§1) The alcohol used as the poorly water-soluble solvent has a vapor pressure at 20° C. of 0.5 mmHg or less and a surface tension of 30.0 mN/m or more as described above. When a poorly water-soluble alcohol having a vapor pressure at 20° C. of more than 0.5 mmHg forms a film on an ejection opening of a recording head, the film evaporates unfortunately, and the effect of suppressing water evaporation is reduced. In consideration of this point, the poorly water-soluble alcohol preferably has a vapor pressure at 20° C. of 0.2 mmHg or less and more preferably 0.1 mmHg or less. Meanwhile, a poorly water-soluble alcohol having a surface tension of less than 30.0 mN/m has a weak intermolecular force, and thus the poorly water-soluble alcohol cannot form a film even when separated from an ink. In consideration of this point, the poorly water-soluble alcohol preferably has a surface tension of 36.0 mN/m or more. The poorly water-soluble alcohol preferably has a surface tension of 50 mN/m or less.

[1] = Solubility in water at 20° C. (saturated solubility); format: physicochemical
Description: As the poorly water-soluble solvent, at least an alcohol having a vapor pressure at 20° C. of 0.5 mmHg or less and a surface tension of 30.0 mN/m or more (hereinafter also called “poorly water-soluble alcohol”) is used.

[2] = Partition coefficient (n-octanol / water), common logarithm; settings: for Log partition coefficient: solvents used in Comparative Examples; for LogPA: poorly water-soluble alcohol (solvent A); for LogPB: highly water-soluble solvent (solvent B)
Surface tension = format: physicochemical
Description: The present invention will now be more specifically described with reference to preferred embodiments, but the invention is not intended to be limited to the following embodiments. In the present specification, an aqueous ink for ink jet may be simply called “ink”. Physical property values are values determined at normal temperature (25° C.) unless otherwise noted.
as §1

[3] = solvents used in Comparative Examples

CC(=O)OCc1ccccc1 [Benzyl acetate]
Vapor pressure (Vapor pressure at 20° C.; [3]): 0.2 mmHg | Solubility [1, 3]: 0.30 g/100 g-H2O | Log partition coefficient [2]: 1.84 | Surface tension (Surface tension; [3]): 35.9 mN/m

COc1ccc(C=O)cc1 [p-Anisaldehyde]
Vapor pressure (Vapor pressure at 20° C.; [3]): 0.0 mmHg | Solubility [1, 3]: 0.40 g/100 g-H2O | Surface tension (Surface tension; [3]): 37.2 mN/m

OCCc1ccccc1 [Phenethyl alcohol]
Vapor pressure (Vapor pressure at 20° C.): 0.1 mmHg | Solubility [1]: 2.20 g/100 g-H2O | Surface tension (Surface tension): 39.7 mN/m

OCCOc1ccccc1 [2-Phenoxyethanol]
Vapor pressure (Vapor pressure at 20° C.): 0.0 mmHg | Solubility [1]: 2.67 g/100 g-H2O | LogPA [2]: 1.16 | Surface tension (Surface tension): 40.0 mN/m

OCCOCCOCCO [Triethylene glycol]
Solubility [1]: ≥ 20 g/100 g-H2O | LogPB [2]: −1.87

CCCCCO [Example 1-Pentanol, 1-Pentanol]
Vapor pressure (Vapor pressure at 20° C.; [3]): 1.5 mmHg | Solubility [1, 3]: 2.20 g/100 g-H2O | Log partition coefficient [2]: 1.41 | Surface tension (Surface tension; [3]): 25.5 mN/m

OCc1ccccc1 [Benzyl alcohol]
Vapor pressure (Vapor pressure at 20° C.): 0.1 mmHg | Solubility [1]: 4.29 g/100 g-H2O | LogPA [2]: 1.03 | Surface tension (Surface tension): 39.0 mN/m

OCCCc1ccccc1 [3-Phenyl-1-propanol]
Vapor pressure (Vapor pressure at 20° C.): 0.0 mmHg | Solubility [1]: 0.57 g/100 g-H2O | LogPA [2]: 1.88 | Surface tension (Surface tension): 38.9 mN/m

CC(O)COc1ccccc1 (centres unmarked) [1-Phenoxy-2-propanol]
Vapor pressure (Vapor pressure at 20° C.): 0.0 mmHg | Solubility [1]: 1.10 g/100 g-H2O | LogPA [2]: 1.51 | Surface tension (Surface tension): 37.7 mN/m

OCC(O)CO [Glycerol]
LogPB [2]: −2.32

COCCOCCO [Methyl carbitol]
LogPB [2]: −1.16

C=CC(C)(O)CCC=C(C)C (centres unmarked) [Linalool]
Vapor pressure (Vapor pressure at 20° C.; [3]): 0.2 mmHg | Solubility [1, 3]: 1.50 g/100 g-H2O | Surface tension (Surface tension; [3]): 26.6 mN/m

CC(O)CO (centres unmarked) [Propylene glycol]
LogPB [2]: −1.34

OCCCCc1ccccc1 [4-Phenyl-1-butanol]
Vapor pressure (Vapor pressure at 20° C.): 0.0 mmHg | Solubility [1]: 0.10 g/100 g-H2O | LogPA [2]: 2.40 | Surface tension (Surface tension): 38.3 mN/m

O=C1CCCN1 [2-Pyrrolidone]
LogPB [2]: −1.01

OCCO [Ethylene glycol]
LogPB [2]: −1.69

O=CCc1ccccc1 [Phenylacetaldehyde]
Vapor pressure (Vapor pressure at 20° C.; [3]): 0.4 mmHg | Surface tension (Surface tension; [3]): 35.9 mN/m

CC(O)Cc1ccccc1 (centres unmarked) [1-Phenyl-2-propanol]
Vapor pressure (Vapor pressure at 20° C.): 0.1 mmHg | Solubility [1]: 0.58 g/100 g-H2O | LogPA [2]: 1.71 | Surface tension (Surface tension): 37.3 mN/m
